Where no end group is shown, it is not given here.
Tests used:
Type in all cases: cell-based
[1] = system: Klebsiella pneumoniae JCM 1662 T; settings: JCM 1662, 17 h
Description: (§1) The antimicrobial peptides (samples Nos. 1 to 15) were prepared using the same methods as in Examples 1 to 15, and antimicrobial peptide derivatives (samples Nos. 16 to 18) were prepared using the same methods as in Examples 16 to 18, and were sterilized by filtration using a 0.45 μm Millex filter prior to use.
(§2) Various microbial strains shown in Table 4 in the logarithmic phase of growth were inoculated in a peptone medium which consisted of 1% Bactopeptone (manufactured by Difco Laboratory Co.) at a cell concentration of 10^6 /ml, and 160 μl thereof were incubated for 17 hours at 37° C. (or 30° C.) using a 96-hole microtiter plate (manufactured by Falcon Co.). Each sample was added to each medium at a ratio of 0, 1.5, 3, 6, 12, 25, 50, 100, 125 or 250 μM. The growth of the various microorganisms in the various samples at various concentrations was studied by measuring the light absorption at 660 nm.
(§3) The microorganisms used in this experiment are available from The Medical School Laboratories of Tokyo University (IID), Japanese Physicochemical Laboratories (JCM), Japanese International Dairy Federation (IDF), and the storage at the laboratory of the applicant (MMI).

[2] = system: Listeria monocytogenes IDF 1b; settings: 17 h
Description: as §1, §2, §3

[3] = system: Pseudomonas aeruginosa MMI 603; settings: MMI 603, 17 h
Description: as §1, §2, §3

[4] = system: Staphylococcus aureus JCM 2151; settings: JCM 2151, 17 h
Description: as §1, §2, §3

[5] = system: Escherichia coli MMI 0111; test: Antimicrobial spectrum, minimum inhibitory concentration
Description: as §1, §2, §3

[6] = system: Escherichia coli IID 861
Description: as §1, §2, §3

Substance | minimum inhibitory concentration (MIC) [1] | minimum inhibitory concentration (MIC) [2] | minimum inhibitory concentration (MIC) [3] | minimum inhibitory concentration (MIC) [4] | minimum inhibitory concentration (MIC) [5] [µM] | minimum inhibitory concentration (MIC) [6] [µM]
KTFQWQRNMRK [Sample No. 14, Lys-Thr-Phe-Gln-Trp-Gln-Arg-Asn-Met-Arg-Lys] | up to 50 μM | up to 12 μM | up to 50 μM | up to 12 μM | – | –
KSRRRQWRMKK [Sample No. 12, Lys-Ser-Arg-Arg-Arg-Gln-Trp-Arg-Met-Lys-Lys] | up to 50 μM | up to 12 μM | up to 50 μM | up to 12 μM | – | –
KTLRWQNEMRK [Sample No. 15, Lys-Thr-Leu-Arg-Trp-Gln-Asn-Glu-Met-Arg-Lys] | up to 50 μM | up to 12 μM | up to 50 μM | up to 12 μM | – | –
KRNMRK [Sample No. 9, Lys-Arg-Asn-Met-Arg-Lys] | – | up to 100 μM | – | up to 100 μM | – | –
RRWQWR [Sample No. 6, Arg-Arg-Trp-Gln-Trp-Arg] | – | up to 100 μM | – | up to 100 μM | – | –
KTRRWQWRMKK-NH2 [Sample No. 18, Lys-Thr-Arg-Arg-Trp-Gln-Trp-Arg-Met-Lys-Lys-NH2] | – | – | – | – | 6 | 3
RRRQWR [Sample No. 7, Arg-Arg-Arg-Gln-Trp-Arg] | – | up to 100 μM | – | up to 100 μM | – | –
KTRRWQWRMKK [Sample No. 11, Lys-Thr-Arg-Arg-Trp-Gln-Trp-Arg-Met-Lys-Lys] | up to 50 μM | up to 12 μM | up to 50 μM | up to 12 μM | – | –
KTVSWQTYMKK [Sample No. 13, Lys-Thr-Val-Ser-Trp-Gln-Thr-Tyr-Met-Lys-Lys] | up to 50 μM | up to 12 μM | up to 50 μM | up to 12 μM | – | –
RWQEMK [Sample No. 10, Arg-Trp-Gln-Glu-Met-Lys] | – | up to 100 μM | – | up to 100 μM | – | –
KTVSWR [Sample No. 8, Lys-Thr-Val-Ser-Trp-Arg] | – | up to 100 μM | – | up to 100 μM | – | –
